Reference: ChEMBL document CHEMBL5614446, “Side Chain Investigation of Imidazopyridazine as a Hinge Binder for Targeting Actionable Mutations of RET Kinase” (ACS Med Chem Lett, 2024)

Legend:
[1] = biological target: Proto-oncogene tyrosine-protein kinase receptor Ret (Homo sapiens, UniProt P07949, G810R); assay: Inhibition of human RET kinase-G810R mutant using RRRRRRRRRRRVYSTDYYRLFNPS as substrate in presence of [gamma33P]-ATP and 10 uM ATP by radiometric HotSpot assay
[2] = biological target: Proto-oncogene tyrosine-protein kinase receptor Ret (Homo sapiens, UniProt P07949, V804M); assay: Inhibition of human RET kinase-V804M mutant using RRRRRRRRRRRVYSTDYYRLFNPS as substrate in presence of [gamma33P]-ATP and 10 uM ATP by radiometric HotSpot assay
Chain of Proto-oncogene tyrosine-protein kinase receptor Ret (Homo sapiens, UniProt P07949, V804M) (P07949 29-1114 V804M limits assumed): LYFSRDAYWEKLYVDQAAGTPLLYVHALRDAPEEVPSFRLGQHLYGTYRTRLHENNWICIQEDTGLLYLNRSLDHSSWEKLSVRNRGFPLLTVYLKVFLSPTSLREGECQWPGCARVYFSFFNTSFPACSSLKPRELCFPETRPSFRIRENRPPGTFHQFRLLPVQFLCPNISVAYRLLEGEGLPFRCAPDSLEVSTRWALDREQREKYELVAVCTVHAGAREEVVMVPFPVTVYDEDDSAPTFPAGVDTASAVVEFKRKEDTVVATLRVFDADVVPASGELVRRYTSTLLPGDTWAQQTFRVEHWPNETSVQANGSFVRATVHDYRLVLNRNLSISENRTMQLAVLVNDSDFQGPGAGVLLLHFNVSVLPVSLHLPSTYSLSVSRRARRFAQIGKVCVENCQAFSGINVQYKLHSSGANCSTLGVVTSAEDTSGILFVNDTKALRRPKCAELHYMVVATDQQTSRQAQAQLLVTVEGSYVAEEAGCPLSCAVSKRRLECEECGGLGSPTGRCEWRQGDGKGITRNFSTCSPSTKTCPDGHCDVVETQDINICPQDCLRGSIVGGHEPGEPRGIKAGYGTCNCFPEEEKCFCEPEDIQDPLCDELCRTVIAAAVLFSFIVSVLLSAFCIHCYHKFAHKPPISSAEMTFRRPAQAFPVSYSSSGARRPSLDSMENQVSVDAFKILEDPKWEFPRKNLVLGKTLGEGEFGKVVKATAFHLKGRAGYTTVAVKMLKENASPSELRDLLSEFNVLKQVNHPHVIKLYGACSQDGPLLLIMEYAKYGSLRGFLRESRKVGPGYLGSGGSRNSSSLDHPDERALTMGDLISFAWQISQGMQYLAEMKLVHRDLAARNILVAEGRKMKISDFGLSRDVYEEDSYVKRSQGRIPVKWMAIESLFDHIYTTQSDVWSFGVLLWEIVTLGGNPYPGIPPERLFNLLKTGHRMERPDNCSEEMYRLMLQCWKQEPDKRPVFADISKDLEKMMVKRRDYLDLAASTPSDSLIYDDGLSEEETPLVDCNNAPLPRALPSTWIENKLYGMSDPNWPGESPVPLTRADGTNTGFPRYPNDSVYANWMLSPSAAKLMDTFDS

[3] = biological target: Kinesin-1 heavy chain/ Tyrosine-protein kinase receptor RET (Homo sapiens, UniProt P07949); assay: Inhibition of human […]-RET kinase in presence of [gamma33P]-ATP and 10 uM ATP by radiometric HotSpot assay; format: protein assay
Chain of Kinesin-1 heavy chain/ Tyrosine-protein kinase receptor RET (P07949 whole entry): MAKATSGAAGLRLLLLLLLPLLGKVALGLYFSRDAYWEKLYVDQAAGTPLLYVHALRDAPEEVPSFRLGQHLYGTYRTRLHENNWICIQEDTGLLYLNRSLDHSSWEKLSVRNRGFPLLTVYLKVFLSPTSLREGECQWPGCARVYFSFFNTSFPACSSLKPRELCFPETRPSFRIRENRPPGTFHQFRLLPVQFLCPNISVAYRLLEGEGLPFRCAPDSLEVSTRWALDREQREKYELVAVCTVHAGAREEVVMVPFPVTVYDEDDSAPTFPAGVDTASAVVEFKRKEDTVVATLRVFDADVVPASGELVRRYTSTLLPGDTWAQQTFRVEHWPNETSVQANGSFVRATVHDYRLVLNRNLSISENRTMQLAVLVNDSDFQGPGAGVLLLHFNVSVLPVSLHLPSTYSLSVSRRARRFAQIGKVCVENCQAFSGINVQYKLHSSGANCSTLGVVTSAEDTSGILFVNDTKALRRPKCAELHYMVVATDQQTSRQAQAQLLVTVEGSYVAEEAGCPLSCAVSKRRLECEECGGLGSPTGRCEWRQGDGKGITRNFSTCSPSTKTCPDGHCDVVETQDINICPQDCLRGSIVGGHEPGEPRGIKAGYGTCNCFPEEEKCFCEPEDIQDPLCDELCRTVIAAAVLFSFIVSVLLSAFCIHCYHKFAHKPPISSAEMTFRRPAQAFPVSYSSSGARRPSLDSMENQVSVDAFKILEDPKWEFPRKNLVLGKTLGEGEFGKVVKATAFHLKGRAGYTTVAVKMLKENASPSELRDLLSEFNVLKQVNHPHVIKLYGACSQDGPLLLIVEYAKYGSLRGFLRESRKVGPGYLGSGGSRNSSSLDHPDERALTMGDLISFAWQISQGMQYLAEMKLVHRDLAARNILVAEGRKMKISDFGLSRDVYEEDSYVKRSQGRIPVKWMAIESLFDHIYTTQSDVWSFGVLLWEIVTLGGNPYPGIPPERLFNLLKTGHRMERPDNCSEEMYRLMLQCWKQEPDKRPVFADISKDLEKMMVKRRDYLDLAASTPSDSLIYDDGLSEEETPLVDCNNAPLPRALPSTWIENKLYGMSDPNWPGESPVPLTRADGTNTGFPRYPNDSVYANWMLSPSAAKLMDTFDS
Chain of Kinesin-1 heavy chain/ Tyrosine-protein kinase receptor RET (P33176 whole entry, further chain): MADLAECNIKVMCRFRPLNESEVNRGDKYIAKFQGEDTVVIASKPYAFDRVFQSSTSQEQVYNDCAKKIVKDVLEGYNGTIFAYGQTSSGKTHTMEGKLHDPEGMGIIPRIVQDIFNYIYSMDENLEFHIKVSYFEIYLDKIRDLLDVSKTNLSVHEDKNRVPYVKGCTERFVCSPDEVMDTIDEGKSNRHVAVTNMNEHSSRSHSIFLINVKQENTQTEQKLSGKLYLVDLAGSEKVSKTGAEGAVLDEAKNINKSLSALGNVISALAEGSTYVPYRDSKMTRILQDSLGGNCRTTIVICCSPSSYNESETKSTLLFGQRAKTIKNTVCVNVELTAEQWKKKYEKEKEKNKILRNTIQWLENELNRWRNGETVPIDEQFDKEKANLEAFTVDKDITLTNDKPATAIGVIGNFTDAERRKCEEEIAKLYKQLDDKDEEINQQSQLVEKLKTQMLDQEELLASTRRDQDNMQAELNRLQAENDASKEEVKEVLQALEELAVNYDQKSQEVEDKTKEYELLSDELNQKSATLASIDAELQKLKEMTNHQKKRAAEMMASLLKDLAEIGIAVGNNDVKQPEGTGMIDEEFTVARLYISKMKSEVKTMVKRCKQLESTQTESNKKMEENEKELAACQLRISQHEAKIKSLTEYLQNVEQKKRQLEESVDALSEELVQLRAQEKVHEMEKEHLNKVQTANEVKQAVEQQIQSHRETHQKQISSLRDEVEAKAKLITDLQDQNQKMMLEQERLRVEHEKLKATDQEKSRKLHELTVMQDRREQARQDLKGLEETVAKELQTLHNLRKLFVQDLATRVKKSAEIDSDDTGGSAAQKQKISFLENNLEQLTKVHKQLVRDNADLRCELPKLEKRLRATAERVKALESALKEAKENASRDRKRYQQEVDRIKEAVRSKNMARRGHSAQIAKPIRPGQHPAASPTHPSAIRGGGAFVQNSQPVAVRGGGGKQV

[4] = Inhibition of human […]-RET kinase-V804M mutant in presence of [gamma33P]-ATP and 10 uM ATP by radiometric HotSpot assay
[5] = biological target: Proto-oncogene tyrosine-protein kinase receptor Ret (Homo sapiens, UniProt P07949); assay: Inhibition of human wild type RET kinase using RRRRRRRRRRRVYSTDYYRLFNPS as substrate in presence of [gamma33P]-ATP and 10 uM ATP by radiometric HotSpot assay
Chain of Proto-oncogene tyrosine-protein kinase receptor Ret (Homo sapiens, UniProt P07949) (P07949 whole entry): as the sequence (P07949 whole entry) above

[6] = system: Proto-oncogene tyrosine-protein kinase receptor Ret (Homo sapiens), P07949 [V804M]; assay: Inhibition of human RET kinase-V804M mutant at 0.1 uM using RRRRRRRRRRRVYSTDYYRLFNPS as substrate in presence of [gamma33P]-ATP and 10 uM ATP by radiometric HotSpot assay relative to control
Chain of Proto-oncogene tyrosine-protein kinase receptor Ret (Homo sapiens), P07949 [V804M] (P07949 whole entry V804M, the tested form may be a part): as the sequence (P07949 whole entry) above, with V804M counted along it

BaF3 [7] = assay: Cytotoxicity against mouse BaF3 cells expressing […]-RET kinase-V804L mutant fusion protein assessed as inhibition of cell proliferation incubated for 72 hrs by CCK8 assay; format: functional, cell-based; conditions: BaF3, 72 h
BaF3 [8] = assay: Cytotoxicity against mouse BaF3 cells expressing […]-RET kinase-G810S mutant fusion protein assessed as inhibition of cell proliferation incubated for 72 hrs by CCK8 assay; format: functional, cell-based; conditions: BaF3, 72 h
BaF3 [9] = assay: Cytotoxicity against mouse BaF3 cells expressing […]-RET kinase-G810A mutant fusion protein assessed as inhibition of cell proliferation incubated for 72 hrs by CCK8 assay; format: functional, cell-based; conditions: BaF3, 72 h
BaF3 [10] = assay: Cytotoxicity against mouse BaF3 cells expressing […]-RET kinase-G810R mutant fusion protein assessed as inhibition of cell proliferation incubated for 72 hrs by CCK8 assay; format: functional, cell-based; conditions: BaF3, 72 h
BaF3 [11] = assay: Cytotoxicity against mouse BaF3 cells expressing […]-RET kinase-G810C mutant fusion protein assessed as inhibition of cell proliferation incubated for 72 hrs by CCK8 assay; format: functional, cell-based; conditions: BaF3, 72 h
BaF3 [12] = assay: Cytotoxicity against mouse BaF3 cells expressing […]-RET kinase fusion protein assessed as inhibition of cell proliferation incubated for 72 hrs by CCK8 assay; format: functional, cell-based; conditions: BaF3, 72 h
BaF3 [13] = assay: Cytotoxicity against mouse BaF3 cells expressing […]-RET kinase-V804M mutant fusion protein assessed as inhibition of cell proliferation incubated for 72 hrs by CCK8 assay; format: functional, cell-based; conditions: BaF3, 72 h
[14] = system: Proto-oncogene tyrosine-protein kinase receptor Ret (Homo sapiens), P07949 [G810R]; assay: Inhibition of human RET kinase-G810R mutant assessed as residual activity at 0.1 uM using RRRRRRRRRRRVYSTDYYRLFNPS as substrate in presence of [gamma33P]-ATP and 10 uM ATP by radiometric HotSpot assay
Chain of Proto-oncogene tyrosine-protein kinase receptor Ret (Homo sapiens), P07949 [G810R] (P07949 whole entry G810R): as the sequence (P07949 whole entry) above, with G810R counted along it

Chain of Proto-oncogene tyrosine-protein kinase receptor Ret (Homo sapiens, UniProt P07949, G810R) (P07949 29-1114 G810R limits assumed): as the sequence (P07949 29-1114 V804M limits assumed) above, with M776V, G782R counted along it

| SMILES | IC50 [1] [nM] | IC50 [2] [nM] | IC50 [3] [nM] | IC50 [4] [nM] | IC50 [5] [nM] | inhibition [6] [%] | IC50 (BaF3 [7]) [nM] | IC50 (BaF3 [8]) [nM] | IC50 (BaF3 [9]) [nM] | IC50 (BaF3 [10]) [nM] | IC50 (BaF3 [11]) [nM] | IC50 (BaF3 [12]) [nM] | IC50 (BaF3 [13]) [nM] | Activity [14] [%] |
| --- | --- | --- | --- | --- | --- | --- | --- | --- | --- | --- | --- | --- | --- | --- |
| CCOC(=O)c1nc2ccc(Nc3cc(C)[nH]n3)nn2c1C#Cc1cc(C(=O)Nc2cc(-n3cnc(C)c3)cc(C(F)(F)F)c2)ccc1C | > 2000 | 102 | > 2000 | > 2000 | 921 |  |  |  |  |  |  |  |  |  |
| Cc1ccc(C(=O)Nc2cc(CN3CCN(C)CC3)cc(C(F)(F)F)c2)cc1C#Cc1cnc2ccc(Cl)nn12 | 19.8 | < 0.5 |  | 281 |  | 100 |  |  |  |  |  |  |  |  |
| CCOC(=O)c1nc2ccc(NCCN3CCCCC3)nn2c1C#Cc1cc(C(=O)Nc2cc(-n3cnc(C)c3)cc(C(C)(C)C#N)c2)c(NCCN2CCCCC2)cc1C |  |  |  |  |  |  | 1600 | 1600 | 1200 | 1200 | 1700 | 900 |  |  |
| CCOC(=O)c1nc2n(c1C#Cc1cc(C(=O)Nc3cc(-n4cnc(C)c4)cc(C(F)(F)F)c3)ccc1C)NC(NC1CC1)C=C2 (stereo not drawn) |  |  |  |  |  |  | 3300 | 3000 | 3800 | 3800 | 2900 | 3000 |  |  |
| Cc1ccc(C(=O)Nc2ccc(CN3CCN(C)CC3)c(C(F)(F)F)c2)cc1C#Cc1cnc2ccc(OCCNC(C)C)nn12 | 25.3 | < 0.5 | 1.2 | 19.4 | 3.6 |  |  |  |  |  |  |  |  |  |
| COc1ccc(CN2C3CC2CN(c2ccc(-c4cc(OCC(C)(C)O)cn5ncc(C#N)c45)cn2)C3)cn1 [SELPERCATINIB] |  |  |  |  |  |  | 20 | 400 | 260 | 2100 | 5800 | 10 | 100 |  |
| Cc1ccc(C(=O)Nc2cc(CN3CCN(C)CC3)cc(C(F)(F)F)c2)cc1C#Cc1cnc2ccc(N3CCOCC3)nn12 | 41.3 | 0.1 |  | 47.8 |  |  |  |  |  |  |  |  |  | 26.4 |
| Cc1cn(-c2cc(NC(=O)c3cc(C#Cc4cnc5ccc(OCCN6CCOCC6)nn45)c(C)cc3F)cc(C(C)(C)C#N)c2)cn1 | 1300 | 7.4 | 43.7 | 622 | 345 |  | 1800 | 100 | 50 | 400 | 600 | 100 | 1600 |  |
| Cc1ccc(C(=O)Nc2ccc(CN3CCN(C)CC3)c(C(F)(F)F)c2)cc1C#Cc1cnc2ccc(OCCN3CCOCC3)nn12 | 11 | < 0.5 | 129 | 84.5 | 478 |  |  |  |  |  |  |  |  |  |
| COc1ccc(Nc2ccc3ncc(C#Cc4cc(C(=O)Nc5cc(CN6CCN(C)CC6)cc(C(F)(F)F)c5)ccc4C)n3n2)cc1 | 89.8 | 0.9 |  | 137 |  |  |  |  |  |  |  |  |  | 46.6 |
